Measured values reported in patent US20250057808A1, “COMPOSITION COMPRISING BETA LACTAM FOR TREATING ALCOHOL DEPENDENCE AND ALCOHOL ASSOCIATED DISEASES OR CONDITIONS” (Temple University of the Commonwealth System of Higher …, priority 2023, published 2025).
Entries after “also recorded” stand apart in the source; their conditions may differ.

Experiments:
xCT = assay: Western blot xCT expression in NAc-core, NAc-shell and liver (50 mg/kg study); format: in vivo, P rats; details: MC-100093 50 mg/kg or ceftriaxone 200 mg/kg i.p. 5 days; for Protein expression of xCT in the NAc-shell: vs Ethanol group
Experimental: We used micro-punch procedure to dissect the subregions of the NAc such as NAc-core and NAc-shell as well as the subregions of prefrontal cortex such as infralimbic (IL) and prelimbic (PL) from the brain on day 6 after the last injection day. P rats were removed from the cage and rapidly euthanized by CO2 inhalation followed by rapid decapitation with a guillotine. Brains were isolated and immediately frozen on dry ice and stored at −80° C. The stereotaxic coordinates provided by Paxinos and colleague's rat brain stereotactic atlas was used to isolate NAc-core and NAc-shell using a cryostat apparatus (−20° C.), which then kept at −80° C. for later western blot analyses.
Western Blot assay was performed to measure changes in the expression of GLT-1, xCT, mGluR1, mGluR5, PPAR-α, PPARγ, GAPDH and β-tubulin in the NAc-core and NAc-shell as described in previous publications. A lysis buffer containing protease and phosphatase inhibitors was used to generate a homogenate of liver, Nac-core, and Nac-shell samples. The amount of protein was quantified using a detergent compatible protein assay (Bio-Rad, Hercules, CA, USA) for each sample. Samples were mixed with laemmli dye and loaded with equal amounts on polyacrylamide gels (10%), which separated the proteins using electrophoresis. After that, polyvinylidene difluoride (PVDF) membranes were used to transfer the proteins electrophoretically from the gels. Membranes were incubated in 5% free-fat milk in Tris-buffered saline with Tween-20 (TBST) for 30-60 minutes at room temperature. Membranes were then incubated with appropriate primary antibodies overnight at 4° C.: rabbit anti-GLT-1 (1:5000, Abcam, ab41621), rabbit anti-xCT (1:2000, Abcam, ab175186), rabbit anti-mGluR1 (1:1000, Abcam, ab82211), rabbit anti-mGluR5 (1:1000, Abcam, ab76316), rabbit anti-PPAR-α (1:1000, Abcam, ab24509), and rabbit anti-PPARγ (1:1000, Abcam, ab209350). Mouse anti-β-tubulin (1:1000; BioLegend) was used as a loading control antibody for the brain samples and rabbit anti-GAPDH (1:5000; cell signaling) was used as a loading control antibody for the liver samples. Membranes were washed five times on the next day with TBST followed by incubation with appropriate secondary antibody (1:5000) for 90 minutes at room temperature. Chemiluminescent reagents (Super Signal West Pico, Pierce Inc.) were used to detect the proteins using a GeneSys imaging system to develop the digitized blot images. Water-control group data were represented as 100% and all other values were expressed relative to control group to detect changes in the expression of the protein of interest in the brain and liver samples.
All statistical analyses were conducted with Graphpad Prism software, with p-values of 0.05 or less being statistically significant. We performed a two-way (mixed model) ANOVA followed by Bonferroni multiple comparison post-hoc test to analyze 24 h ethanol consumption, 24 h water consumption, and daily body weight. For the Western blot and oil red O staining analysis, we performed one-way ANOVA with Newman-Keuls as a post hoc multiple comparison test to measure differences between groups as a percentage (relative to control values).

GLT-1 = assay: Immunoblot GLT-1 in mPFC-IL, mPFC-PL, NAc-core, NAc-shell (section B); format: in vivo, Male and female alcohol-preferring (P) rats; details: 100 mg/kg i.p. 5 days
Experimental: After 24 hours of receiving the last injection, rats were euthanized by CO2 inhalation followed by decapitation with a guillotine. Brains were harvested and immediately frozen on dry ice and stored at −80° C. Cryostat (Leica) was used to isolate the mPFC subregions (mPFC-IL and mPFC-PL), and subregions of the NAc (NAc-core and NAc-shell). Brains were micro-punctured using the stereotaxic coordinates following the Rat Brain Atlas. The isolated brain regions were stored at −80° C. for subsequent protein detection using Western Blot assay.
Immunoblot assays were performed to determine the expression of GLT-1, xCT and β-tubulin in mPFC-IL, mPFC-PL, NAc-core, and NAc-shell of all groups as described previously. Briefly, brain samples were homogenized in lysis buffer supplemented with protease inhibitor and total protein was quantified using protein assay (Bio-Rad, Hercules, CA, USA). Equal amount of the samples was loaded on polyacrylamide gel (10-20%).
Subsequently, proteins were transferred on a PVDF membrane and blocked with 5% milk in Tris-buffered saline Tween-20 (1×TBST) for 30 minutes at room temperature. Membranes were then incubated overnight at 4° C. with one of the following antibodies: rabbit anti-GLT-1 (1:1000, Abcam, AB41621), and/or rabbit anti-xCT (1:1000, Abcam, AB175186). Mouse anti-β-tubulin (1:1000; Cell Signaling D71G5) was used as a loading control antibody. On the following day, membranes were washed five times with 1×TBST followed by incubation with appropriate secondary antibody (1:4000) for 60 minutes at room temperature. Chemiluminescent reagents (Super Signal West Pico, Pierce Inc.) were used to detect proteins using a ChemiDoc imaging system (BioRad, USA).
GLT-1 and xCT expression were normalized against β-tubulin, a control loading protein. Imaging System and ImageJ software version 1.53a were used to quantify and analyze the expression of GLT-1 and xCT in the subregions of the mPFC and NAc. Data from water-control group were represented as 100% and all other values were expressed relative to this control to evaluate the changes in protein expression.
The ratios for treated animals in the ethanol/saline and ethanol/MC-100093 groups were normalized to the mean ratios for the control group (water/saline group). The control ratio was set at 100, and the results from each of the treated groups were expressed as a percentage relative to the water/saline group value of 100%. We normalized the ethanol/saline and ethanol/MC-100093 groups data to water/saline group to reduce any differences of contrast with Western blots for each set of groups (control/water/saline, ethanol/saline, and ethanol/MC-100093 groups).
All statistical analyses were conducted using GraphPad Prism (10). Two-way (mixed) ANOVA followed by Bonferroni multiple comparison post-hoc test was performed to analyze daily ethanol intake, average daily water intake and body weight. One-way ANOVA followed by Newman-Keuls post hoc tests were used to analyze Western blot data. All statistical analyses data were reported as a p<0.05 of significance.

[1] = female P rats, vs ethanol-saline and water-saline
[2] = male P rats, vs ethanol-saline and water-saline

With `C[C@@H](O)[C@H]1C(=O)N[C@@H]1[C@@H](C)C(=O)N1CCN(C)CC1` [MC-100093] the “Protein expression of xCT in the NAc-core” value (xCT; among all groups) was “non-significant difference; also recorded: no significant difference”, the “Protein expression of xCT in the liver” value (xCT; between all groups) was “no significant differences” and the “Protein expression of xCT in the NAc-shell” value (xCT) was “significantly higher level of xCT; also recorded: normalized GLT-1 and xCT levels in the NAc-shell”. The “Protein expression of xCT in the NAc-shell” value (xCT; listed as MC-100095) was “significantly increased xCT expression”, the “GLT-1 expression in the NAc-core” value (GLT-1; female P rats) was “significant upregulation of GLT-1 expression” and the “GLT-1 expression in the NAc-shell” value (GLT-1; female P rats) was “significant upregulation of GLT-1 expression”. The “GLT-1 expression in the mPFC-IL” value (GLT-1; [1]) was “upregulated GLT-1 expression”, the “GLT-1 expression in the mPFC-PL” value (GLT-1; [1]) was “significant upregulation of GLT-1 expression” and the “GLT-1 expression in mPFC and NAc subregions (summary)” value (GLT-1; female and male P rats, vs ethanol-saline groups, 100 mg/kg) was “upregulated GLT-1 and xCT expression in mPFC and NAc subregions; also recorded: increasing GLT-1 and xCT expression in the mPFC and NAc subregions”. The “GLT-1 expression in the mPFC-IL” value (GLT-1; male P rats) was “attenuated ethanol-induced downregulation of GLT-1 expression”, the “GLT-1 expression in the NAc-core” value (GLT-1; [2]) was “significantly increased” and the “GLT-1 expression in the NAc-shell” value (GLT-1; [2]) was “significantly increased”. The “GLT-1 expression in the mPFC-PL” value (GLT-1; male P rats, vs ethanol-saline and water-saline, 100 mg/kg) was “significantly upregulated GLT-1 expression; also recorded: significantly increased”.
